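Briefly, cells in 96-well plates were exposed to five compound concentrations for 48 h, and endpoints were estimated by linear interpolation. GI50 marks 50% less growth. TGI is the concentration that stops growth completely.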
How the values were obtained:
Assay in all cases: NCI-60 cell line screen, 48 h
MALME-3M melanoma = system: MALME-3M melanoma
HOP-92 NSCLC = system: HOP-92 NSCLC
SN12C renal = system: SN12C renal
SK-MEL-5 melanoma = system: SK-MEL-5 melanoma
786-0 renal = system: 786-0 renal
KM12 colon = system: KM12 colon
PC-3 prostate = system: PC-3 prostate
SK-MEL-2 melanoma = system: SK-MEL-2 melanoma
RXF 393 renal = system: RXF 393 renal
OVCAR-3 ovarian = system: OVCAR-3 ovarian
HL-60(TB) leukemia = system: HL-60(TB) leukemia
SW-620 colon = system: SW-620 colon
OVCAR-8 ovarian = system: OVCAR-8 ovarian
UACC-62 melanoma = system: UACC-62 melanoma
ACHN renal = system: ACHN renal
IGROV1 ovarian = system: IGROV1 ovarian
HCT-15 colon = system: HCT-15 colon
SF-268 CNS = system: SF-268 CNS
LOX IMVI melanoma = system: LOX IMVI melanoma
RPMI-8226 leukemia = system: RPMI-8226 leukemia
HCT-116 colon = system: HCT-116 colon
MDA-MB-435 = system: MDA-MB-435
CCRF-CEM leukemia = system: CCRF-CEM leukemia
M14 melanoma = system: M14 melanoma
DU-145 prostate = system: DU-145 prostate
SF-539 CNS = system: SF-539 CNS
SNB-19 CNS = system: SNB-19 CNS
SNB-75 CNS = system: SNB-75 CNS
MOLT-4 leukemia = system: MOLT-4 leukemia
NCI-H226 lung = system: NCI-H226 lung
MCF7 breast = system: MCF7 breast
OVCAR-5 ovarian = system: OVCAR-5 ovarian
NCI-H460 lung = system: NCI-H460 lung
SK-MEL-28 melanoma = system: SK-MEL-28 melanoma
HS 578T breast = system: HS 578T breast
TK-10 renal = system: TK-10 renal
CAKI-1 renal = system: CAKI-1 renal
T-47D breast = system: T-47D breast
SR leukemia = system: SR leukemia
UO-31 renal = system: UO-31 renal
A549 NSCLC = system: A549 NSCLC
SF-295 CNS = system: SF-295 CNS
NCI/ADR-RES ovarian = system: NCI/ADR-RES ovarian
NCI-H522 lung = system: NCI-H522 lung
BT-549 breast = system: BT-549 breast
A498 renal = system: A498 renal
HCC-2998 colon = system: HCC-2998 colon
MDA-MB-231 breast = system: MDA-MB-231 breast
EKVX NSCLC = system: EKVX NSCLC
HOP-62 NSCLC = system: HOP-62 NSCLC
K-562 leukemia = system: K-562 leukemia
SK-OV-3 ovarian = system: SK-OV-3 ovarian
UACC-257 melanoma = system: UACC-257 melanoma
COLO 205 colon = system: COLO 205 colon
U251 CNS = system: U251 CNS
NCI-H23 lung = system: NCI-H23 lung
HT29 colon = system: HT29 colon

O=C(c1cccs1)c1c(C(F)(F)F)n([O-])c2cc(C(F)(F)F)ccc2[n+]1=O
GI50 (MALME-3M melanoma): 347 nM | TGI (MALME-3M melanoma): 772 nM | GI50 (HOP-92 NSCLC): 172 nM | TGI (HOP-92 NSCLC): 342 nM | GI50 (SN12C renal): 200 nM | TGI (SN12C renal): 408 nM | GI50 (SK-MEL-5 melanoma): 314 nM | TGI (SK-MEL-5 melanoma): 723 nM | GI50 (786-0 renal): 171 nM | TGI (786-0 renal): 319 nM | GI50 (KM12 colon): 183 nM | TGI (KM12 colon): 380 nM | GI50 (PC-3 prostate): 136 nM | TGI (PC-3 prostate): 281 nM | GI50 (SK-MEL-2 melanoma): 915 nM | TGI (SK-MEL-2 melanoma): 2460 nM | GI50 (RXF 393 renal): 184 nM | TGI (RXF 393 renal): 351 nM | GI50 (OVCAR-3 ovarian): 333 nM | TGI (OVCAR-3 ovarian): 704 nM | GI50 (HL-60(TB) leukemia): < 23.6 nM | TGI (HL-60(TB) leukemia): 135 nM | GI50 (SW-620 colon): 140 nM | TGI (SW-620 colon): 304 nM | GI50 (OVCAR-8 ovarian): 263 nM | TGI (OVCAR-8 ovarian): 1480 nM | GI50 (UACC-62 melanoma): 462 nM | TGI (UACC-62 melanoma): 1280 nM | GI50 (ACHN renal): 159 nM | TGI (ACHN renal): 303 nM | GI50 (IGROV1 ovarian): 290 nM | TGI (IGROV1 ovarian): 848 nM | GI50 (HCT-15 colon): 175 nM | TGI (HCT-15 colon): 349 nM | GI50 (SF-268 CNS): 163 nM | TGI (SF-268 CNS): 334 nM | GI50 (LOX IMVI melanoma): 71.4 nM | TGI (LOX IMVI melanoma): 170 nM | GI50 (RPMI-8226 leukemia): 211 nM | TGI (RPMI-8226 leukemia): 590 nM | GI50 (HCT-116 colon): 57.5 nM | TGI (HCT-116 colon): 176 nM | GI50 (MDA-MB-435): 315 nM | TGI (MDA-MB-435): 877 nM | GI50 (CCRF-CEM leukemia): 120 nM | TGI (CCRF-CEM leukemia): 361 nM | GI50 (M14 melanoma): 554 nM | TGI (M14 melanoma): 1190 nM | GI50 (DU-145 prostate): 179 nM | TGI (DU-145 prostate): 326 nM | GI50 (SF-539 CNS): 195 nM | TGI (SF-539 CNS): 409 nM | GI50 (SNB-19 CNS): 348 nM | TGI (SNB-19 CNS): 707 nM | GI50 (SNB-75 CNS): 491 nM | TGI (SNB-75 CNS): 1540 nM | GI50 (MOLT-4 leukemia): 75.7 nM | TGI (MOLT-4 leukemia): 231 nM | GI50 (NCI-H226 lung): 647 nM | TGI (NCI-H226 lung): 1710 nM | GI50 (MCF7 breast): 187 nM | TGI (MCF7 breast): 410 nM | GI50 (OVCAR-5 ovarian): 432 nM | TGI (OVCAR-5 ovarian): 1370 nM | GI50 (NCI-H460 lung): 198 nM | TGI (NCI-H460 lung): 512 nM | GI50 (SK-MEL-28 melanoma): 694 nM | TGI (SK-MEL-28 melanoma): 2090 nM | GI50 (HS 578T breast): 189 nM | TGI (HS 578T breast): 546 nM | GI50 (TK-10 renal): 678 nM | TGI (TK-10 renal): 1850 nM | GI50 (CAKI-1 renal): 220 nM | TGI (CAKI-1 renal): 628 nM | GI50 (T-47D breast): 154 nM | TGI (T-47D breast): 400 nM | GI50 (SR leukemia): 17.6 nM | TGI (SR leukemia): 83.3 nM | GI50 (UO-31 renal): 315 nM | TGI (UO-31 renal): 656 nM | GI50 (A549 NSCLC): 242 nM | TGI (A549 NSCLC): 690 nM | GI50 (SF-295 CNS): 322 nM | TGI (SF-295 CNS): 889 nM | GI50 (NCI/ADR-RES ovarian): 216 nM | TGI (NCI/ADR-RES ovarian): 585 nM | GI50 (NCI-H522 lung): 294 nM | TGI (NCI-H522 lung): 738 nM | GI50 (BT-549 breast): 188 nM | TGI (BT-549 breast): 367 nM | GI50 (A498 renal): 960 nM | TGI (A498 renal): 2600 nM | GI50 (HCC-2998 colon): 293 nM | TGI (HCC-2998 colon): 850 nM | GI50 (MDA-MB-231 breast): 177 nM | TGI (MDA-MB-231 breast): 345 nM | GI50 (EKVX NSCLC): 251 nM | TGI (EKVX NSCLC): 625 nM | GI50 (HOP-62 NSCLC): 174 nM | TGI (HOP-62 NSCLC): 337 nM | GI50 (K-562 leukemia): 30.3 nM | TGI (K-562 leukemia): 101 nM | GI50 (SK-OV-3 ovarian): 758 nM | TGI (SK-OV-3 ovarian): 1870 nM | GI50 (UACC-257 melanoma): 662 nM | TGI (UACC-257 melanoma): 1820 nM | GI50 (COLO 205 colon): 174 nM | TGI (COLO 205 colon): 362 nM | GI50 (U251 CNS): 153 nM | TGI (U251 CNS): 288 nM | GI50 (NCI-H23 lung): 348 nM | TGI (NCI-H23 lung): 1270 nM | GI50 (HT29 colon): 193 nM | TGI (HT29 colon): 419 nM
